Source: patent US20090012000A1, “Anti-Viral Peptide and Use Thereof” (TOAGOSEI CO., LTD., priority 2006, published 2009)
Ends that are not written are not given here.

How the values were obtained:
[1] = tested on: HVT (turkey herpes virus); test: HVT multiplication suppression test in CEF cells, titer by plaque assay; format: cell-based, turkey herpes virus (FC-126 strain); conditions: for antiviral activity (viral multiplication suppression effect): result in words, peptide 10, 50 and 100 μM; for Ratio (relative ratio of virus titer, no peptide added = 1) / Titer: CEF cells, six days
Experimental: The antiviral activity (viral multiplication suppression effect) was examined for each sample antiviral peptide and each comparative sample peptide. In the present example, HVT (turkey herpes virus) was used as the target virus, and the titer was measured based on the plaque assay method.
That is to say, chicken embryo fibroblast (CEF) cells prepared from SPF (specific pathogen-free) embryonated hen's egg (purchased from Nisseiken Co., LTD) were monolayer-cultured at 37° C. using Leibowitz-McCoy 5A (1:1) mixed culture medium (LM medium). The culture was peeled from the culture dish by trypsin digestion and transferred to a 50 mL centrifugation tube. After centrifugal separation, the supernatant was discarded and the culture was suspended with LM medium.
HVT (FC-126 strain used as vaccine), which virus titer was measured beforehand, was diluted with this cell suspension to as to have 100 plaque forming units (PFU) or 400 PFU per 2 mL. This dilute solution was dispensed in each well of a 6-well plate, 2 mL in each. Then, the test peptides (Samples 1 to 4, Comparative Samples 1 to 4) were diluted with PBS to be at 2.1 mM, 1050 μM and 210 μM, and added to each well, 0.1 mL in each. The final concentration of each well after addition was respectively 100 μM, 50 μM and 10 μM. A well to which 0.1 mL of PBS not containing peptide was added was prepared as a reference.
Thereafter, the above 6-well plate was placed in a CO2 incubator (5% CO2), cultured at 37° C. for six days, and the number and size of HVT plaques that appeared were observed. Here, comparing with wells with no peptide added, when a drop in the number of plaques or a reduction in the size of plaques was not observed even when a peptide was added, the viral multiplication suppression effect of this peptide was determined to be none. On the other hand, a test peptide for which a well with smaller plaque number or plaque size was present, the titer of each well was measured, and the viral multiplication suppression effect (antiviral activity) was quantified by comparing with the quantity of virus with no peptide added.
For the method for measuring the HVT virus titer, cells in each well were recovered by trypsin digestion, serially diluted, mixed again with CEF cells, dispensed in a 6-well plate and cultured at 37° C., and the number of plaques appeared after six days were counted. The relative ratio of virus titer at each peptide concentration was determined with the virus titer (PFU/mL) of the well with no peptide added being 1. That is to say, the viral multiplication suppression effect of each test peptide can be compared using the value of this relative ratio (Ratio).

[2] = tested on: A/New Calcdonia/20/99 (H1N1) influenza virus; test: Influenza virus multiplication inhibition assay (plaque assay) in MDCK cells; format: cell-based; conditions: 48 hours; for Infectivity Titer, Trial 1: control 1.1 × 10^9; for Infectivity Titer, Trial 2: control 2.1 × 10^9

Row | Substance | antiviral activity (viral multiplication suppression effect) [1] | Ratio (relative ratio of virus titer, no peptide added = 1) ([1]; peptide 100 μM) | Infectivity Titer, Trial 1 ([2]; peptide 100 μM) | other results
1 | EFFDAPE-COOH (EFFDAPE-OH; listed as Homo sapiens) [Comparative Sample 3, reference compound] | no viral multiplication suppression effect |  |  | 
2 | FKIKITTAPKRYCVRPN-NH2 [Comparative Sample 4, reference compound] | no viral multiplication suppression effect |  |  | 
3 | RKKKRKV FKIKTTAPKRYCVRPN-CONH2 (RKKKRKVFKIKTTAPKRYCVRPN-NH2) [Sample 3] | excellent antiviral activity | 0.30 |  | 
4 | RKKKRKV FKVKTTAPKRYCVRPN-CONH2 (RKKKRKVFKVKTTAPKRYCVRPN-NH2) [Sample 6] |  |  | 3.3 × 10^8 PFU/mL | Infectivity Titer, Trial 1 ([2]; peptide 200 μM): 1.0 × 10^8 PFU/mL
5 | RKKKRKV FKVKTTAPRRYCVRPN-CONH2 (RKKKRKVFKVKTTAPRRYCVRPN-NH2) [Sample 5] |  |  | 3.5 × 10^8 PFU/mL | Infectivity Titer, Trial 1 ([2]; peptide 50 μM): 1.0 × 10^9 PFU/mL; Infectivity Titer, Trial 2 ([2]; peptide 50 μM): 1.2 × 10^9 PFU/mL; Infectivity Titer, Trial 2 ([2]; peptide 100 μM): 6.9 × 10^8 PFU/mL
6 | RKKKRKV-COOH (RKKKRKV-OH) [Comparative Sample 2, reference compound] | no viral multiplication suppression effect |  |  | 
7 | RQARRNRRRRWR EFFDAPE-CONH2 (RQARRNRRRRWREFFDAPE-NH2) [Sample 1] |  | 0.90 |  | 
8 | RQARRNRRRRWR EFFDARE-CONH2 (RQARRNRRRRWREFFDARE-NH2) [Sample 2] |  | 0.80 |  | 
9 | RQARRNRRRRWR FKVKTTSPKKYFVRPN-CONH2 (RQARRNRRRRWRFKVKTTSPKKYFVRPN-NH2) [Sample 4] | excellent antiviral activity | 0.16 | 5.8 × 10^8 PFU/mL | Ratio (relative ratio of virus titer, no peptide added = 1) ([1]; peptide 10 μM): 1.0; Titer ([1]; peptide 10 μM): (7.6 × 10^4) PFU/mL; Ratio (relative ratio of virus titer, no peptide added = 1) ([1]; peptide 50 μM): 0.46; Titer ([1]; peptide 50 μM): (3.5 × 10^4) PFU/mL; Titer ([1]; peptide 100 μM): (1.2 × 10^4) PFU/mL; Infectivity Titer, Trial 1 ([2]; peptide 200 μM): 2.8 × 10^8 PFU/mL
10 | RQARRNRRRRWR-COOH (RQARRNRRRRWR-OH) [Comparative Sample 1, reference compound] | no viral multiplication suppression effect |  |  | 
